According to BindingDB's records for doi:10.1021/jm701348d (Inspire Pharmaceuticals, 2008):
Where “and” joins values, the source holds several entries; their conditions need not be identical. Equal entries are not always repeated.

Assay: Antagonist activity at P2Y12 receptor assessed as inhibition of ADP-induced human platelet aggregation by washed platelet assay

IC50	Structure (SMILES)
16.7 µM	O=c1ccn([C@@H]2O[C@H](COP(=O)(O)OP(=O)(O)OP(=O)(O)OP(=O)(O)OC[C@@H]3O[C@H](n4ccc(=O)[nH]c4=O)[C@@H](O)[C@H]3O)[C@@H]3OC(c4ccccc4)O[C@H]32)c(=O)[nH]1 (some centres not stated)
23.9 µM	O=C(Nc1ccc(F)cc1)Nc1ccn([C@@H]2O[C@H](COP(=O)(O)OP(=O)(O)OP(=O)(O)OP(=O)(O)OC[C@@H]3O[C@H](n4ccc(=O)[nH]c4=O)[C@H]4O[C@@H](Cc5ccccc5)O[C@H]43)[C@@H](O)[C@H]2O)c(=O)n1
10.8 µM	O=C(Nc1ccccc1)Nc1ncnc2c1ncn2[C@@H]1O[C@H](COP(=O)(O)OP(=O)(O)O)[C@@H](O)[C@H]1O
0.16 µM	O=C(Nc1ccccc1)Nc1ncnc2c1ncn2[C@@H]1O[C@H](COP(=O)(O)O)[C@H]2OC(Cc3ccccc3)O[C@H]21 (some centres not stated)
11.2 µM	O=C(Nc1ccc(F)cc1)Nc1ccn([C@@H]2O[C@H](COP(=O)(O)O)[C@H]3O[C@@H](Cc4ccccc4)O[C@H]32)c(=O)n1
6.54 µM	Nc1ncnc2c1ncn2[C@@H]1O[C@H](COP(=O)(O)OP(=O)(O)OP(=O)(O)OP(=O)(O)OC[C@@H]2O[C@H](n3cnc4c(N)ncnc43)[C@@H](O)[C@H]2O)[C@H]2OC(Cc3ccccc3)O[C@H]21 (some centres not stated)
4.63 µM	O=c1ccn([C@@H]2O[C@H](COP(=O)(O)OP(=O)(O)OP(=O)(O)OC[C@@H]3O[C@H](n4ccc(=O)[nH]c4=O)[C@H]4OC(Cc5ccccc5)O[C@H]43)[C@H]3OC(Cc4ccccc4)O[C@H]32)c(=O)[nH]1 (some centres not stated)
16.9 µM	CCCCCCCC1O[C@@H]2[C@H](O1)[C@@H](COP(=O)(O)OP(=O)(O)OP(=O)(O)OP(=O)(O)OC[C@@H]1O[C@H](n3ccc(=O)[nH]c3=O)[C@@H](O)[C@H]1O)O[C@H]2n1ccc(=O)[nH]c1=O (some centres not stated)
0.053 µM	CCCCCCNC(=O)Nc1ncnc2c1ncn2[C@@H]1O[C@H](COP(=O)(O)O)[C@H]2OC(Cc3ccccc3)O[C@H]21 (some centres not stated)
3.3 µM	O=c1ccn([C@@H]2O[C@H](COP(=O)(O)OP(=O)(O)OP(=O)(O)OP(=O)(O)OC[C@@H]3O[C@H](n4ccc(=O)[nH]c4=O)[C@H]4OC(/C=C/c5ccccc5)O[C@H]43)[C@H]3OC(/C=C/c4ccccc4)O[C@H]32)c(=O)[nH]1 (some centres not stated)
0.21 µM	O=C(Nc1ccccc1)Nc1ncnc2c1ncn2[C@@H]1O[C@H](COP(=O)(O)O)[C@H]2OC(/C=C/c3ccccc3)O[C@H]21 (some centres not stated)
0.0362 µM	O=C(Nc1ncnc2c1ncn2[C@@H]1O[C@H](COP(=O)(O)O)[C@H]2OC(Cc3ccccc3)O[C@H]21)NC1CCCC1 (some centres not stated)
57.1 µM	Nc1ncnc2c1ncn2[C@@H]1O[C@H](COP(=O)(O)O)[C@H]2OC(C#Cc3ccccc3)O[C@H]21 (some centres not stated)
45.1 µM	Nc1ncnc2c1ncn2[C@@H]1O[C@H](COP(=O)(O)O)[C@H]2OC(/C=C/c3ccccc3)O[C@H]21 (some centres not stated)
0.237 µM	CCCCCCNC(=O)Nc1ncnc2c1ncn2[C@@H]1O[C@H](COP(=O)(O)O)[C@H]2OC(/C=C/c3ccccc3)O[C@H]21 (some centres not stated)
8.29 µM	O=c1ccn([C@@H]2O[C@H](COP(=O)(O)OP(=O)(O)OP(=O)(O)OP(=O)(O)OC[C@@H]3O[C@H](n4ccc(=O)[nH]c4=O)[C@H]4OC(c5ccccc5)O[C@H]43)[C@H]3OC(c4ccccc4)O[C@H]32)c(=O)[nH]1 (some centres not stated)

IC50	Structure (SMILES)
1.82 µM	O=c1ccn([C@@H]2O[C@H](COP(=O)(O)OP(=O)(O)OP(=O)(O)OP(=O)(O)OC[C@@H]3O[C@H](n4ccc(=O)[nH]c4=O)[C@H]4OC(Cc5ccccc5)O[C@H]43)[C@H]3OC(Cc4ccccc4)O[C@H]32)c(=O)[nH]1 (some centres not stated)
0.052 µM	O=C(Nc1ccccc1)Nc1ncnc2c1ncn2[C@@H]1O[C@H](COP(=O)(O)OP(=O)(O)O)[C@H]2O[C@@H](Cc3ccccc3)O[C@H]21
34.7 µM	O=c1ccn([C@@H]2O[C@H](COP(=O)(O)OP(=O)(O)OP(=O)(O)OC[C@@H]3O[C@H](n4ccc(=O)[nH]c4=O)[C@@H](O)[C@H]3O)[C@H]3OC(Cc4ccccc4)O[C@H]32)c(=O)[nH]1 (some centres not stated)
12.9 µM	O=C(Nc1ccc(F)cc1)Nc1ccn([C@@H]2O[C@H](COP(=O)(O)OP(=O)(O)OP(=O)(O)OP(=O)(O)OC[C@@H]3O[C@H](n4ccc(=O)[nH]c4=O)[C@@H](O)[C@H]3O)[C@H]3O[C@@H](Cc4ccccc4)O[C@H]32)c(=O)n1
0.522 µM	O=C(Nc1ccccc1)Nc1ncnc2c1ncn2[C@@H]1O[C@H](COP(=O)(O)OP(=O)(O)OP(=O)(O)OP(=O)(O)OC[C@@H]2O[C@H](n3cnc4c(NC(=O)Nc5ccccc5)ncnc43)[C@H]3O[C@@H](Cc4ccccc4)O[C@H]32)[C@H]2O[C@@H](Cc3ccccc3)O[C@H]21
0.041 µM	CCNC(=O)Nc1ncnc2c1ncn2[C@@H]1O[C@H](COP(=O)(O)O)[C@H]2OC(Cc3ccccc3)O[C@H]21 (some centres not stated)
23 µM	Nc1ncnc2c1ncn2[C@@H]1O[C@H](COP(=O)(O)OP(=O)(O)O)[C@H]2O[C@@H](Cc3ccccc3)O[C@H]21
0.211 µM	CCCCCCNC(=O)Nc1ncnc2c1ncn2[C@@H]1O[C@H](COP(=O)(O)O)[C@H]2OC(C#Cc3ccccc3)O[C@H]21 (some centres not stated)
27.1 µM	O=c1ccn([C@@H]2O[C@H](COP(=O)(O)OP(=O)(O)OP(=O)(O)OP(=O)(O)OC[C@@H]3O[C@H](n4ccc(=O)[nH]c4=O)[C@@H](O)[C@H]3O)[C@@H]3OC(Cc4ccccc4)O[C@H]32)c(=O)[nH]1 (some centres not stated)
7.59 µM	CNc1ccccc1C(=O)O[C@H]1[C@@H](O)[C@H](n2ccc(=O)[nH]c2=O)O[C@@H]1COP(=O)(O)OP(=O)(O)OP(=O)(O)OP(=O)(O)OC[C@@H]1O[C@H](n2ccc(=O)[nH]c2=O)[C@@H](OC(=O)c2ccccc2NC)[C@H]1O
11.7 µM	Nc1ncnc2c1ncn2[C@@H]1O[C@H](COP(=O)(O)OP(=O)(O)OP(=O)(O)OP(=O)(O)OC[C@@H]2O[C@H](n3cnc4c(N)ncnc43)[C@H]3OC(Cc4ccccc4)O[C@H]32)[C@H]2OC(Cc3ccccc3)O[C@H]21 (some centres not stated)
8.68 µM and 8.8 µM	O=c1ccn([C@@H]2O[C@H](COP(=O)(O)OP(=O)(O)OP(=O)(O)OP(=O)(O)OC[C@@H]3O[C@H](n4ccc(=O)[nH]c4=O)[C@@H](O)[C@H]3O)[C@H]3OC(/C=C/c4ccccc4)O[C@H]32)c(=O)[nH]1 (some centres not stated)
0.013 µM	CCNC(=O)Nc1ncnc2c1ncn2[C@@H]1O[C@H](COP(=O)(O)O)[C@H]2OC(c3ccccc3)O[C@H]21 (some centres not stated)
10.7 µM	CCCCCCCC1O[C@@H]2[C@H](O1)[C@@H](COP(=O)(O)OP(=O)(O)OP(=O)(O)OP(=O)(O)OC[C@@H]1O[C@H](n3ccc(=O)[nH]c3=O)[C@H]3OC(CCCCCCC)O[C@H]31)O[C@H]2n1ccc(=O)[nH]c1=O (some centres not stated)
3.11 µM	O=C(Nc1ccccc1)Nc1ncnc2c1ncn2[C@@H]1O[C@H](COP(=O)(O)O)[C@@H](O)[C@H]1O
0.288 µM	O=C(Nc1ccccc1)Nc1ncnc2c1ncn2[C@@H]1O[C@H](COP(=O)(O)O)[C@H]2OC(C#Cc3ccccc3)O[C@H]21 (some centres not stated)
